Assay results: ChEMBL document CHEMBL3885861, “Open TG-GATES”

Species on record: Rattus norvegicus
Assay: Open TG-GATES - Regimen: Daily Repeat
Format: toxicity, organism-based, Sprague-Dawley
Parameters: regimen Daily Repeat, gender Male, age 6 weeks
Details: in vivo, po, 100 mg/kg, route gavage, dose level Low; for APTT / Bas / Eos / Fbg / Hb / Ht / Lym / MCH / MCHC / MCV / Mono / Neu / PT / Plat / RBC / Ret / WBC: tissue Blood; for KIDNEY_L / KIDNEY_R / KIDNEY_TOTAL: tissue Kidney; for LIVER: tissue Liver; for A/G / ALP / ALT / AST / BUN / CRE / Ca / Cl / DBIL / GLC / IP / K / LDH / Na / PL / RALB / TBIL / TC / TG / TP / gamma-GTP: tissue Plasma

For `O=C(O)c1cc(/N=N/c2ccc(S(=O)(=O)Nc3ccccn3)cc2)ccc1O` [SULFASALAZINE], the TERMINAL_BW (72 h, time 3 day) was 236.6 g, the APTT (72 h, time 3 day) was 18.4 s and the Bas (72 h, time 3 day) was 0%. For the same compound, the Eos (72 h, time 3 day) was 1%, the Fbg (72 h, time 3 day) was 226.6 mg/dL and the Hb (72 h, time 3 day) was 13.6 g/dL. It also gave a Ht (72 h, time 3 day) of 39.7%, a Lym (72 h, time 3 day) of 79.8% and an MCH (72 h, time 3 day) of 21.5 pg. For the same compound, the MCHC (72 h, time 3 day) was 34.3%, the MCV (72 h, time 3 day) was 62.6 fL and the Mono (72 h, time 3 day) was 3.2%. It also gave a Neu (72 h, time 3 day) of 14.4%, a PT (72 h, time 3 day) of 12.6 s and a Plat (72 h, time 3 day) of 129.7 x10_4/uL. For the same compound, the RBC (72 h, time 3 day) was 634.2 x10_4/ul, the Ret (72 h, time 3 day) was 6.4% and the WBC (72 h, time 3 day) was 114.1 x10_2/uL. It also gave a KIDNEY_L (72 h, time 3 day) of 1 g, a KIDNEY_R (72 h, time 3 day) of 1 g and a KIDNEY_TOTAL (72 h, time 3 day) of 2 g. It also gave an LIVER (72 h, time 3 day) of 10.9 g, an A/G (72 h, time 3 day) of 1.5 and an ALP (72 h, time 3 day) of 979.2 IU/L. It also gave an ALT (72 h, time 3 day) of 44.4 IU/L, an AST (72 h, time 3 day) of 86.8 IU/L and a BUN (72 h, time 3 day) of 16.4 mg/dL. It also gave a CRE (72 h, time 3 day) of 0.4 mg/dL, a Ca (72 h, time 3 day) of 10.9 mg/dL and a Cl (72 h, time 3 day) of 103 meq/L. The DBIL (72 h, time 3 day) was 0.09 mg/dL, the GLC (72 h, time 3 day) was 201 mg/dL and the IP (72 h, time 3 day) was 7.4 mg/dL. It also gave a K (72 h, time 3 day) of 4.2 meq/L, an LDH (72 h, time 3 day) of 286.8 IU/L and a Na (72 h, time 3 day) of 140.4 meq/L. For the same compound, the PL (72 h, time 3 day) was 154.6 mg/dL, the RALB (72 h, time 3 day) was 3.3 g/dL and the TBIL (72 h, time 3 day) was 0.1 mg/dL. For the same compound, the TC (72 h, time 3 day) was 76.8 mg/dL, the TG (72 h, time 3 day) was 83.4 mg/dL and the TP (72 h, time 3 day) was 5.6 g/dL. It also gave a gamma-GTP (72 h, time 3 day) of 1.4 IU/L, a TERMINAL_BW ([…], time 7 day) of 262.7 g and a TERMINAL_BW ([…], time 14 day) of 309.6 g. The TERMINAL_BW ([…], time 28 day) was 389.8 g, the APTT ([…], time 7 day) was 19.1 s and the Bas ([…], time 7 day) was 0%. It also gave an Eos ([…], time 7 day) of 1%, a Fbg ([…], time 7 day) of 216.2 mg/dL and a Hb ([…], time 7 day) of 13.8 g/dL. It also gave a Ht ([…], time 7 day) of 39.9%, a Lym ([…], time 7 day) of 82% and an MCH ([…], time 7 day) of 21.1 pg. It also gave an MCHC ([…], time 7 day) of 34.5%, an MCV ([…], time 7 day) of 61.3 fL and a Mono ([…], time 7 day) of 1.8%. For the same compound, the Neu ([…], time 7 day) was 13.6%, the PT ([…], time 7 day) was 12.5 s and the Plat ([…], time 7 day) was 116 x10_4/uL. For the same compound, the RBC ([…], time 7 day) was 651.8 x10_4/ul, the Ret ([…], time 7 day) was 5.1% and the WBC ([…], time 7 day) was 110 x10_2/uL. It also gave an APTT ([…], time 14 day) of 19.4 s, a Bas ([…], time 14 day) of 0% and an Eos ([…], time 14 day) of 1%. The Fbg ([…], time 14 day) was 214 mg/dL, the Hb ([…], time 14 day) was 14.5 g/dL and the Ht ([…], time 14 day) was 41.3%. For the same compound, the Lym ([…], time 14 day) was 79.2%, the MCH ([…], time 14 day) was 21.2 pg and the MCHC ([…], time 14 day) was 35.1%. It also gave an MCV ([…], time 14 day) of 60.4 fL, a Mono ([…], time 14 day) of 2.6% and a Neu ([…], time 14 day) of 16.2%. The PT ([…], time 14 day) was 12.5 s, the Plat ([…], time 14 day) was 107.7 x10_4/uL and the RBC ([…], time 14 day) was 684.4 x10_4/ul. For the same compound, the Ret ([…], time 14 day) was 4.6%, the WBC ([…], time 14 day) was 116.3 x10_2/uL and the APTT ([…], time 28 day) was 19.7 s. For the same compound, the Bas ([…], time 28 day) was 0%, the Eos ([…], time 28 day) was 1% and the Fbg ([…], time 28 day) was 231 mg/dL. The Hb ([…], time 28 day) was 15.1 g/dL, the Ht ([…], time 28 day) was 42.4% and the Lym ([…], time 28 day) was 81.2%. It also gave an MCH ([…], time 28 day) of 19.8 pg, an MCHC ([…], time 28 day) of 35.6% and an MCV ([…], time 28 day) of 55.6 fL. The Mono ([…], time 28 day) was 2.4%, the Neu ([…], time 28 day) was 14.6% and the PT ([…], time 28 day) was 12.6 s. It also gave a Plat ([…], time 28 day) of 105.8 x10_4/uL, an RBC ([…], time 28 day) of 764.8 x10_4/ul and a Ret ([…], time 28 day) of 3.2%. For the same compound, the WBC ([…], time 28 day) was 113.7 x10_2/uL, the KIDNEY_L ([…], time 7 day) was 1.1 g and the KIDNEY_R ([…], time 7 day) was 1.1 g. The KIDNEY_TOTAL ([…], time 7 day) was 2.2 g, the KIDNEY_L ([…], time 14 day) was 1.2 g and the KIDNEY_R ([…], time 14 day) was 1.2 g. It also gave a KIDNEY_TOTAL ([…], time 14 day) of 2.3 g, a KIDNEY_L ([…], time 28 day) of 1.4 g and a KIDNEY_R ([…], time 28 day) of 1.4 g. The KIDNEY_TOTAL ([…], time 28 day) was 2.7 g, the LIVER ([…], time 7 day) was 11.9 g and the LIVER ([…], time 14 day) was 13 g. It also gave an LIVER ([…], time 28 day) of 15 g, an A/G ([…], time 7 day) of 1.6 and an ALP ([…], time 7 day) of 780.6 IU/L. For the same compound, the ALT ([…], time 7 day) was 31.8 IU/L, the AST ([…], time 7 day) was 63.8 IU/L and the BUN ([…], time 7 day) was 16.4 mg/dL. It also gave a CRE ([…], time 7 day) of 0.4 mg/dL, a Ca ([…], time 7 day) of 10.6 mg/dL and a Cl ([…], time 7 day) of 103.4 meq/L. It also gave a DBIL ([…], time 7 day) of 0.074 mg/dL, a GLC ([…], time 7 day) of 232 mg/dL and an IP ([…], time 7 day) of 7.2 mg/dL. It also gave a K ([…], time 7 day) of 3.7 meq/L, an LDH ([…], time 7 day) of 217.4 IU/L and a Na ([…], time 7 day) of 140.6 meq/L. It also gave a PL ([…], time 7 day) of 149.6 mg/dL, an RALB ([…], time 7 day) of 3.5 g/dL and a TBIL ([…], time 7 day) of 0.1 mg/dL. The TC ([…], time 7 day) was 72.8 mg/dL, the TG ([…], time 7 day) was 71 mg/dL and the TP ([…], time 7 day) was 5.7 g/dL. For the same compound, the gamma-GTP ([…], time 7 day) was 1.4 IU/L, the A/G ([…], time 14 day) was 1.5 and the ALP ([…], time 14 day) was 842.8 IU/L. It also gave an ALT ([…], time 14 day) of 34 IU/L, an AST ([…], time 14 day) of 65.6 IU/L and a BUN ([…], time 14 day) of 16.8 mg/dL. The CRE ([…], time 14 day) was 0.5 mg/dL, the Ca ([…], time 14 day) was 10.5 mg/dL and the Cl ([…], time 14 day) was 103.4 meq/L. The DBIL ([…], time 14 day) was 0.1 mg/dL, the GLC ([…], time 14 day) was 203.8 mg/dL and the IP ([…], time 14 day) was 6.5 mg/dL. For the same compound, the K ([…], time 14 day) was 3.6 meq/L, the LDH ([…], time 14 day) was 196 IU/L and the Na ([…], time 14 day) was 141.4 meq/L. It also gave a PL ([…], time 14 day) of 153.6 mg/dL, an RALB ([…], time 14 day) of 3.5 g/dL and a TBIL ([…], time 14 day) of 0.2 mg/dL. It also gave a TC ([…], time 14 day) of 70.6 mg/dL, a TG ([…], time 14 day) of 133.4 mg/dL and a TP ([…], time 14 day) of 5.8 g/dL. For the same compound, the gamma-GTP ([…], time 14 day) was 1.2 IU/L, the A/G ([…], time 28 day) was 1.3 and the ALP ([…], time 28 day) was 678.2 IU/L. It also gave an ALT ([…], time 28 day) of 38.8 IU/L, an AST ([…], time 28 day) of 65.8 IU/L and a BUN ([…], time 28 day) of 18 mg/dL. For the same compound, the CRE ([…], time 28 day) was 0.5 mg/dL, the Ca ([…], time 28 day) was 10.5 mg/dL and the Cl ([…], time 28 day) was 102.8 meq/L. The DBIL ([…], time 28 day) was 0.1 mg/dL, the GLC ([…], time 28 day) was 215 mg/dL and the IP ([…], time 28 day) was 6 mg/dL. It also gave a K ([…], time 28 day) of 3.6 meq/L, an LDH ([…], time 28 day) of 185.6 IU/L and a Na ([…], time 28 day) of 141.4 meq/L. For the same compound, the PL ([…], time 28 day) was 154 mg/dL, the RALB ([…], time 28 day) was 3.6 g/dL and the TBIL ([…], time 28 day) was 0.2 mg/dL. For the same compound, the TC ([…], time 28 day) was 71.6 mg/dL, the TG ([…], time 28 day) was 129.8 mg/dL and the TP ([…], time 28 day) was 6.3 g/dL. For the same compound, the gamma-GTP ([…], time 28 day) was 0.6 IU/L.
